Values of other authors as cited in US20010006686A1, “INFLAMMATORY MEDIATION OBTAINED FROM ATRACTYLODES LANCEA” (priority 1999, published 2001).

Molecular target: T1, cyclooxygenase-1 (Ovis aries, UniProt P05979)
T1 sequence (P05979 25-600): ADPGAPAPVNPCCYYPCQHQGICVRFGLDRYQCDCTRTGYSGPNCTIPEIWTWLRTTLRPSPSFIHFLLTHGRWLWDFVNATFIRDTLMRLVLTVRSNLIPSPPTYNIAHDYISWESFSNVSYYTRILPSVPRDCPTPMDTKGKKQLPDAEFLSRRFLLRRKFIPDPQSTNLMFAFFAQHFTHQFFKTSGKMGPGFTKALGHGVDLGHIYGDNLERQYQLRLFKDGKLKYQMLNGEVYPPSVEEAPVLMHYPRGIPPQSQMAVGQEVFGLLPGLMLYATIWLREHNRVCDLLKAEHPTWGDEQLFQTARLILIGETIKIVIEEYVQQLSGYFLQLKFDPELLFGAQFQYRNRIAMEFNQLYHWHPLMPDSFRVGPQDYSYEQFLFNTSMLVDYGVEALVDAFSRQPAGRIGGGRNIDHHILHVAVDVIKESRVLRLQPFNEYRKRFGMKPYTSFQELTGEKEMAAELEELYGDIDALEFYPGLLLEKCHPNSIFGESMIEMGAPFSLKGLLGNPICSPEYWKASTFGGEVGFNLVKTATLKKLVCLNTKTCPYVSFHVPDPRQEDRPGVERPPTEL
Details: Resch, et al., J. Nat. Prod., 61, 347-350 (1998)

CC(C)=CCCC1(C)C=Cc2cc(O)cc(C)c2O1 (stereo not shown) [atractylochromene]
inhibitory effects on COX-1 activity (in words): significant COX-1 inhibitory effects
